{
  "source": "patent US11253566B2",
  "about": "“Composition for ameliorating, or treating depression and anxiety disorder comprising Fraxinus rhynchophylla extract as effective ingredient” (priority 2017, dated 2022)",
  "key": {"[1]": {"system": "C57BL/6 mouse with induced depression and anxiety disorder", "assay": "Forced swim test (FST)", "type": "in vivo", "settings": "150 mg/kg doxepin for 14 days, test on Day 15, vs control group", "procedure": "(§1) Fraxinus rhynchophylla extract was dissolved in physiological saline to have a concentration of 100 mg/kg for each, and then aliquoted. One hour before applying the stress for 14 days, the sample was administered via an oral route.\n(§2) A 7-week old male C57BL/6 mouse was acclimated for 1 week, and then exposed to a stress everyday between 10:00 to 14:00 o'clock. Specifically, 1 hour after the oral administration of a sample, an electric shock with strength of 0.5 mA was applied to the foot sole of the mouse for 1 sec with an interval of 10 seconds, for 2 minutes in total, by using a shuttle box (JD-SI-10, JEUNG DO BIO & PLANT CO, LTD, Seoul, S. Korea). After applying the electric shock, the mouse was put to a hemicylindrical restraining device (JD-R 05A, JEUNG DO BIO & PLANT CO, LTD, Seoul, S. Korea) made of 30 mm-thick acryl, one animal in each device, and then restrained in the immobile state for 2 hours. […]\nForced swim test is a test to determine despair among the symptoms of depression, and the immobility of a mouse was checked using a cylinder having a depth which prevents the animal from touching its paws or tail to the floor of the cylinder. […] Then, the immobility time during 4 minutes, i.e., excluding initial 2 minutes as adaptation period from the total 6 minutes, was measured."}, "[2]": {"system": "C57BL/6 mouse with induced depression and anxiety disorder", "assay": "Open field test (OFT)", "type": "in vivo", "settings": "150 mg/kg doxepin for 14 days, test on Day 15, vs control group", "procedure": "as §1\n(§3) A 7-week old male C57BL/6 mouse was acclimated for 1 week, and then exposed to a stress everyday between 10:00 to 14:00 o'clock. Specifically, 1 hour after the oral administration of a sample, an electric shock with strength of 0.5 mA was applied to the foot sole of the mouse for 1 sec with an interval of 10 seconds, for 2 minutes in total, by using a shuttle box (JD-SI-10, JEUNG DO BIO & PLANT CO, LTD, Seoul, S. Korea). […]\nOpen field test is to determine the degree of anxiety, which is one symptom of depression, by measuring the voluntary movement of a mouse after entering an unfamiliar field for the first time. At the center (15 cm×15 cm) of an open box with a dimension of 30 cm×30 cm×30 cm, which is made of white acryl, a C57BL/6 mouse which has been induced to have depression and anxiety disorder was placed, and then total travel distance and frequency of center entry for 10 minutes were measured. For the measurement, after recording using a video camera, the overall movement of the C57BL/6 mouse was analyzed by using Video tracking software (SMART 3.0, Panlab, Spain). […]"}, "cortisol": {"system": "cortisol", "assay": "Cortisol level in blood serum (ELISA)", "type": "in vivo, mouse", "settings": "150 mg/kg doxepin for 14 days, blood on Day 17, vs control group", "procedure": "as §1\n(§4) A 7-week old male C57BL/6 mouse was acclimated for 1 week, and then exposed to a stress everyday between 10:00 to 14:00 o'clock. Specifically, 1 hour after the oral administration of a sample, an electric shock with strength of 0.5 mA was applied to the foot sole of the mouse for 1 sec with an interval of 10 seconds, for 2 minutes in total, by using a shuttle box (JD-SI-10, JEUNG DO BIO & PLANT CO, LTD, Seoul, S. Korea). After applying the electric shock, the mouse was put to a hemicylindrical restraining device (JD-R 05A, JEUNG DO BIO & PLANT CO, LTD, Seoul, S. Korea) made of 30 mm-thick acryl, one animal in each device, and then restrained in the immobile state for 2 hours.\n(§5) In addition, for the control group, the 12-hour day and night cycle was maintained, but light illumination was applied to the test group for 24 hours to disrupt the regular living pattern, and thus a sleep-interfering environment was created (FIG. 5).\nThe cortisol level in blood serum separated from each test animal was measured. […] Absorbance at 405 nm was then measured."}, "BDNF and mBDNF": {"system": "BDNF and mBDNF", "assay": "Expression of BDNF and mBDNF in hippocampal tissues (Western blot)", "type": "in vivo, mouse", "settings": "150 mg/kg doxepin for 14 days, tissues on Day 17, vs control group", "procedure": "as §1, §2\nProtein expression pattern in brain hippocampal tissues which have been collected from each test animal was determined by Western blot analysis. […] After obtaining the protein amount in each sample, the protein was quantified to 1 μg/μl, and then the expression amount of protein was measured by using Mini PROTEAN TGX Gels."}, "serotonin": {"system": "serotonin", "assay": "Serotonin level in blood serum (ELISA)", "type": "in vivo, mouse", "settings": "150 mg/kg doxepin for 14 days, blood on Day 17, vs control group", "procedure": "as §1, §4, §5\nThe serotonin level in blood serum separated from each test animal was measured. […] Upon the completion of the reaction, absorbance at a wavelength of 405 nm was measured by using a microplate reader."}, "pCREB": {"system": "pCREB", "assay": "Expression ratio of pCREB protein in hippocampal tissues (Western blot)", "type": "in vivo, mouse", "settings": "150 mg/kg doxepin for 14 days, tissues on Day 17, vs control group"}, "[3]": {"assay": "Bodyweight change in mouse with induced depression and anxiety disorder", "type": "in vivo", "settings": "150 mg/kg doxepin, Day 7 or Day 14, vs control group", "procedure": "as §1, §3\nA change in body weight caused by administration of the ethanol extract of Fraxinus rhynchophylla of the present invention was determined in the animal model with induced depression and anxiety disorder. Specifically, the bodyweight of a mouse was measured, before the exposure to stress (Day 0), or on Day 7 or Day 14 after the exposure to stress for the normal group, the control group (i.e., group induced with depression and anxiety disorder), the test group (i.e., group administered with the ethanol extract of Fraxinus rhynchophylla of the present invention), and the positive control group (i.e., group administered with doxepin) (FIG. 6). […]"}},
  "data": [
    {"molecule": "CN(C)CCC=C1c2ccccc2COc2ccccc21", "note": "[doxepin]", "values": [
      {"measurement": "immobility time", "setting": "[1]", "result": "decreased in statistically significant sense"},
      {"measurement": "number of center entry", "setting": "[2]", "result": "increased in statistically significant sense"},
      {"measurement": "travel distance within the center zone", "setting": "[2]", "result": "increase in statistically significant sense"},
      {"measurement": "blood cortisol level", "setting": "cortisol", "result": "decreased in statistically significant sense"},
      {"measurement": "relative expression amount of BDNF in hippocampal tissues", "setting": "BDNF and mBDNF", "result": "increase in statistically significant sense"},
      {"measurement": "relative expression amount of mBDNF in hippocampal tissues", "setting": "BDNF and mBDNF", "result": "increase in statistically significant sense"},
      {"measurement": "serotonin hormone level in blood", "setting": "serotonin", "result": "increased in statistically significant sense"},
      {"measurement": "expression ratio of pCREB protein (pCREB/CREB) in hippocampal tissues", "setting": "pCREB", "result": "increase in statistically significant sense"},
      {"measurement": "bodyweight (gain rate)", "setting": "[3]", "result": "increased in statistically significant sense"}
    ]}
  ]
}
